In publication PMC11464693 (Nature Communications, 2024):

Assays:
laccase (Lac) = biological target: T1, laccase (Lac) (Bacillus subtilis, UniProt P07788); assay: ABTS oxidation at […] nm, whole cells; assay type: cell-based; settings: 5 mM ABTS, 37 °C, pH optimum 5.0; surface-displayed enzyme
T1 sequence (P07788 1-513): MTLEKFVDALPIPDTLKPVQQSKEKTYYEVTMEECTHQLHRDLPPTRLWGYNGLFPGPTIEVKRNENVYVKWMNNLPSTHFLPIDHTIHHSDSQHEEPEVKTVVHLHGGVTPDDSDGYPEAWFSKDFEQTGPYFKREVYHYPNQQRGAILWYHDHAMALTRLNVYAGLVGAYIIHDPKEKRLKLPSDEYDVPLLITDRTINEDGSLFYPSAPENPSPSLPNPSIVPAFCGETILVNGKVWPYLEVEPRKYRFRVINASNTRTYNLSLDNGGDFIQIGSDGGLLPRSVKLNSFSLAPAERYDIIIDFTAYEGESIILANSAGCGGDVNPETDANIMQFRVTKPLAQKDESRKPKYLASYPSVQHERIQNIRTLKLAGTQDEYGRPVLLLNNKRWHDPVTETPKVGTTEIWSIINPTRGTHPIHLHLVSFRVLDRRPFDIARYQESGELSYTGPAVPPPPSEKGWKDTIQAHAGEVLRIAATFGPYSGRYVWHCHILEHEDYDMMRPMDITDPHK

XylD = biological target: T2, XylD (Caulobacter vibrioides, UniProt A0A0H3C6H6); assay: semicarbazone assay at […] nm; assay type: biochemical; settings: 37 °C
T2 sequence (A0A0H3C6H6 1-591): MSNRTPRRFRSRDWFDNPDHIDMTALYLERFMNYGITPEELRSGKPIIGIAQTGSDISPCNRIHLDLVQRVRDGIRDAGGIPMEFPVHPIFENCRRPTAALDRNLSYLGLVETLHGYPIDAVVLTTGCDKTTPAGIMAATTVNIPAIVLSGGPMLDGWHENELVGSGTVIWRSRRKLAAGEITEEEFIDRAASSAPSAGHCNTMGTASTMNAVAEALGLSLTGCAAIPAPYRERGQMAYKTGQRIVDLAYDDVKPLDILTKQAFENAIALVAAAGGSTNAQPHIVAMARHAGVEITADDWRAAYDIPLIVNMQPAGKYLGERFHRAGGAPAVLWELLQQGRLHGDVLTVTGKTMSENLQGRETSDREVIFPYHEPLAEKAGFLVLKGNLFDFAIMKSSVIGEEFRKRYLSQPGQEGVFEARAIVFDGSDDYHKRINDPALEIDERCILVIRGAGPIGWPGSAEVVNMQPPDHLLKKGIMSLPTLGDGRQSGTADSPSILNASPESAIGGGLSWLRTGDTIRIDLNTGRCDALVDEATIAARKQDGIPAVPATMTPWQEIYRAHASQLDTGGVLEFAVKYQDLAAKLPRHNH

XDH = biological target: T3, XDH (Caulobacter vibrioides, UniProt B8H1Z0); assay: NADH formation at […] nm; assay type: biochemical; settings: 10 mM D-xylose, 1 mM NAD+, 37 °C
T3 sequence (B8H1Z0 1-248): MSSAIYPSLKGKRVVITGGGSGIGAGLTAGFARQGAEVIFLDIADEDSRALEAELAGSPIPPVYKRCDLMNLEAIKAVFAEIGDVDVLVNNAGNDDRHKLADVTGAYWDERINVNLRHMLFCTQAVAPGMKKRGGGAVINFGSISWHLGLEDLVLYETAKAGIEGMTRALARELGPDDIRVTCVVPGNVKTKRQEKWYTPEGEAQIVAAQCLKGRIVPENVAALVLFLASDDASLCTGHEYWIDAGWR

KGSADH = biological target: T4, KGSADH (Caulobacter vibrioides, UniProt A0A0H3C801); assay: NADH formation at […] nm; assay type: biochemical
T4 sequence (A0A0H3C801 1-478): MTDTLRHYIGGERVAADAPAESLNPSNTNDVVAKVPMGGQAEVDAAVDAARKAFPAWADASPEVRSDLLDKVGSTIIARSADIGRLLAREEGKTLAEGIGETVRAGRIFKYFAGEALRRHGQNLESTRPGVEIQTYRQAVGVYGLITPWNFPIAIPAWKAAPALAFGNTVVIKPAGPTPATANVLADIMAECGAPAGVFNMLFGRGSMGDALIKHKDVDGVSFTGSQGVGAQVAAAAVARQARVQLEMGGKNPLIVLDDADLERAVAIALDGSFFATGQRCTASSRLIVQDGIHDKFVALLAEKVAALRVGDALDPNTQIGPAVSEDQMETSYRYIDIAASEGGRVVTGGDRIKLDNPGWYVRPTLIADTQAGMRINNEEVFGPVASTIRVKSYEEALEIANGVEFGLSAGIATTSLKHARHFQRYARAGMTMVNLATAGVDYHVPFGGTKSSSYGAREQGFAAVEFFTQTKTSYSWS

XylC = XylC (Caulobacter vibrioides, UniProt A0A0H3C6P8); assay: decrease of p-nitrophenol absorbance at […] nm; assay type: biochemical; settings: spontaneous hydrolysis controlled
XylC, sequence (A0A0H3C6P8 1-289): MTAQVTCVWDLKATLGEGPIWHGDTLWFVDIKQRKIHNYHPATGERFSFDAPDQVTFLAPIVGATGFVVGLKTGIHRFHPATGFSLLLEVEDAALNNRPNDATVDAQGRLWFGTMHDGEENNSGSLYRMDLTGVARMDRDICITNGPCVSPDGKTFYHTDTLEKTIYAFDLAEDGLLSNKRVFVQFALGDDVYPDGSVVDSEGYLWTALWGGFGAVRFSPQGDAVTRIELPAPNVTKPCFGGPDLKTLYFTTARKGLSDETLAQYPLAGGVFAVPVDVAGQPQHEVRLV

CCn1c(=NN=c2sc3cc(S(=O)(=O)O)ccc3n2CC)sc2cc(S(=O)(=O)O)ccc21 [ABTS, 2,2’-azino-bis (3-ethylbenzothiazoline-6-sulfonic acid)]
ABTS oxidation at 420 nm, whole cells (laccase (Lac)): The oxidation activity of E. coli-Lac towards ABTS was calibrated by measuring the absorbance

O=C(O)[C@H](O)[C@@H](O)[C@H](O)CO [D-xylonic acid]
semicarbazone assay at 250 nm (XylD): D-xylonic acid would be transformed into 2-keto-3-deoxyxylic acid by XylD

OC1OC[C@@H](O)[C@H](O)[C@H]1O (stereo partly drawn) [D-xylose]
NADH formation at 340 nm (XDH): D-xylose is oxidized into D-xylono-lactone and generates NADH catalyzed by XDH

NC(=O)c1ccc[n+]([C@@H]2O[C@H](COP(=O)(O)OP(=O)(O)OC[C@H]3O[C@@H](n4cnc5c(N)ncnc54)[C@H](O)[C@@H]3O)[C@@H](O)[C@H]2O)c1 [NAD^+]
NADH formation at 340 nm (XDH): catalyzed by XDH using NAD^+ as coenzyme | NADH formation at 340 nm (KGSADH; glutaraldehyde as substrate): activity of KGSADH by following the rate of NAD^+ reduction

O=CCCCC=O [glutaraldehyde]
NADH formation at 340 nm (KGSADH; NAD+, substitute substrate): monitored by measuring the generation of NADH using analogous glutaraldehyde as substrate

O=C1O[C@H](CO)[C@H](O)[C@H]1O [xylono-1,4-lactone]
decrease of p-nitrophenol absorbance at 405 nm (XylC): To examine the activity of XylC, D-xylono-lactone was used as substrate to produce D-xylonic acid
